This assay concerns TNF-α (degradation of IkB in HeLa cells or A431 cells). The experiment in a line: Human cell-based assay: inhibition of TNF-α induced degradation of IkB. As to conditions: HeLa or A431 cells.

Numbered stars: 1 amine (or outer) side, 2 acyl side, 3 side chain; on linkers, the order of the positions; unused ones are H or OH. Bridge positions count the residues as written; N and C are the ends. Square brackets hold non-standard residues; d marks the D form. Peptide text beside a SMILES is read from it. Bip = N[C@@H](Cc1ccc(-c2ccccc2)cc1)C(=O)O; Phe(4-NH2) = Nc1ccc(C[C@H](N)C(=O)O)cc1; d(hPhe) = N[C@H](CCc1ccccc1)C(=O)O; Suc = O=C(CCC(=O)[*:2])[*:1]

In the case of `O=C1CCC(=O)N[C@H](CCc2ccccc2)C(=O)N[C@@H](Cc2ccc(-c3ccccc3)cc2)C(=O)N[C@H](Cc2ccccc2)C(=O)N[C@H](C(=O)N[C@@H](Cc2ccccc2)C(=O)O)Cc2ccc(cc2)N1` [Compound 202] ([d(hPhe)][Bip][dF][Phe(4-NH2)]F-OH; linker N-4 via Suc), for the setting “5 μM compound, read-out: Inhibition at Various Compound Concentrations, 5 μM”, the inhibition at 5 µM was 10 to 50%. For the same compound, the inhibition at 10 µM (10 μM compound, read-out: Inhibition at Various Compound Concentrations, 10 μM) fell in the range of 50 to 80%.

These data come from patent US8338565B2, “Macrocyclic compounds for inhibition of tumor necrosis factor alpha” (Ensemble Therapeutics Corporation, priority 2008, dated 2012).
